Consider 13 compounds from patent US12629371B2, “Compositions and methods for inhibiting kinases” (Inhibikase Therapeutics, Inc., priority 2016, dated 2026).

The nature of data set [1]: Pharmacokinetic parameters in Sprague-Dawley rats. Set-up: AUC(0-t): concentration or dose not given beside the values. As to conditions: rat, in vivo. As for the experimental part:
Various pharmacokinetic parameters of the compounds described herein were measured in Sprague-Dawley rats.

The nature of data set [2]: Human liver microsome stability. It is filed as in vitro ADME. The note with it: human liver microsomes; read-out: Human liver microsome t1/2.
The target in the next data set is PDGFRa (Homo sapiens, UniProt P16234). The data set can be described thus: Inhibition profile at 500 nM: PDGFRa. The class given is biochemical. As to conditions: 500 nM test compound; Table 2; read-out: Percent inhibition PDGFRa. On the procedure: Then enzyme substrate is added as 10 μl of 2.5×FAM-labeled peptide+ATP solution to each well of the 384-well assay plate The reaction is allowed to proceed at 28° C. and quenched with the addition of 25 μl of stop buffer. The release of fluorescent FAM is quantitated as Percent inhibition=(max−conversion)/(max−min)*100.sp; “max” stands for DMSO control; “min” stands for low control. Convert conversion values to inhibition values. Percent inhibition=(max−conversion)/(max−min)*100. “max” stands for DMSO control; “min” stands for low control.
PDGFRa, sequence (P16234 24-1089): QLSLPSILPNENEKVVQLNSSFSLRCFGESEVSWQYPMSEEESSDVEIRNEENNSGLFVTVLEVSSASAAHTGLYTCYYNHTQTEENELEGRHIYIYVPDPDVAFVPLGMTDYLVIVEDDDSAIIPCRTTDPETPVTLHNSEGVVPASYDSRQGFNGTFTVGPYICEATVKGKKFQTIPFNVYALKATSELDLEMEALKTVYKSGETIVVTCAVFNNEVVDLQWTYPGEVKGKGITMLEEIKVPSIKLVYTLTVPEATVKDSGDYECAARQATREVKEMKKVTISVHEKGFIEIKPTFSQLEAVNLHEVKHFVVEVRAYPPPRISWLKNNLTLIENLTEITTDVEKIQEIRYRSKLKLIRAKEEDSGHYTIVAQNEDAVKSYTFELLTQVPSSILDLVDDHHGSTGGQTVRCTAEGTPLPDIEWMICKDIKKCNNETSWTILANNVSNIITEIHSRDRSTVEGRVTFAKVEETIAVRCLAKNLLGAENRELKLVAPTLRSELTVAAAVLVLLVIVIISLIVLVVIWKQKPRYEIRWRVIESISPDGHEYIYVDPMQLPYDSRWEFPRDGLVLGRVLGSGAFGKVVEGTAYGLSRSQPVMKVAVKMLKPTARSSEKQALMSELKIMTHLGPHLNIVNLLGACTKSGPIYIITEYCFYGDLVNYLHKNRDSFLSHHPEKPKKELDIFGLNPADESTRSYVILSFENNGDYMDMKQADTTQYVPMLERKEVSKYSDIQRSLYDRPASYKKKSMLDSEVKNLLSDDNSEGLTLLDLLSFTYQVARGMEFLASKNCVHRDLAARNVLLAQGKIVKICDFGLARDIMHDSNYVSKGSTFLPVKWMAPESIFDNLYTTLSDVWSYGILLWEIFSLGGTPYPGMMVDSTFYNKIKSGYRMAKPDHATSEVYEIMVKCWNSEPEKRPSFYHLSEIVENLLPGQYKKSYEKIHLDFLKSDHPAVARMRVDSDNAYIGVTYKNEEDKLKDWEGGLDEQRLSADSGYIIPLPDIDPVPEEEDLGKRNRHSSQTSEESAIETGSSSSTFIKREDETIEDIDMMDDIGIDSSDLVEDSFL

A further data set deals with mice treated with MPTP. The experiment in a line: Mouse MPTP neurotoxicity model. It is filed as in vivo. The note with it: for dopamine levels (protection of dopamine-secreting neurons): HPLC-ECD, FIG. 4; for pole test latency: day 14, FIG. 3, control about 5 seconds, MPTP about 30. On the procedure:
Certain compounds of the present invention were evaluated using the MPTP neurotoxicity model. MPTP causes oxidative stress, which in turn causes c-Abl1 and/or c-Abl2 phosphorylation in the SNpc of mice treated with MPTP. MPTP administration according to this model produces a reliable, irreversible loss of DA neurons 7 days after the last injection, similar to that observed in PD. MPTP causes greater loss of DA neurons in SNpc and degeneration of DA nerve terminals in the caudate putamen. Many of the cell death signaling events observed in PD postmortem tissue are present in the MPTP model including oxidative stress, nitrosative stress, c-Abl activation, Parkin inactivation and PARIS and AIMP2 elevation and PARP activation. […] Because the model is relatively rapid, this model was used to assess dosing for future studies, and as a preliminary measure of efficacy.
The study design is depicted in FIG. 1. […] Wild type mice (n=5 per group) were divided into 4 treatment groups as follows: saline, MPTP, Drug and MPTP+Drug. Saline and MPTP groups were pre-treated with drug vehicle (unbuffered water) (20 animals total). Drug and MPTP+Drug groups received the test compounds for 6 days administered by oral gavage daily. On the seventh day, the saline and Drug groups received four intra-peritoneal (i.p.) injections of saline at 2 h intervals. The MPTP and MPTP+Drug groups received four intraperitoneal (i.p.) injections of MPTP·HCl (20 mg/kg free base) at 2 hr intervals. After the MPTP injection day, mice were treated for an additional 6 days with saline or an ATK inhibitor of the present invention. Mice in the saline and MPTP only groups received saline vehicle while the Drug and MPTP+Drug groups received an additional week of drug treatment. On the 14th day, mice were given a pole test, then sacrificed. Brain samples were processed for analysis of biogenic amine concentrations, including dopamine (DA), by high-performance liquid chromatography with electrochemical detection (HPLC-ECD). Loss of DA and its metabolites in the striatum is a consistently reliable indication of loss of DA neurons in the SNpc.

Data set [3] has as its system animal models of Parkinson's Disease. The note with it: literature (J. Neurosci. 31(1); Scientific Reports 4:4874); cited from earlier work.

For `Cc1ccnc(-c2cncc(-c3ccnc(Nc4cc(NC(=O)c5ccc(CN6CCN(C)CC6)cc5)ccc4C)n3)c2)c1` [Compound 830], in data set [1], the exposure AUC(0-t) came to 3720 ± 1090 ng·h/mL, the peak level (Cmax) was 465 ± 115 ng/mL, the Tmax was found to be 4 h and the volume of distribution (Vd) stood at 6.3 ± 1.1 L/kg. In addition, in data set [1], the bioavailability turned out to be 47%, the clearance is 21.7 mL/min/kg and the half-life is 216 min. Also, in data set [2], the half-life turned out to be 19.6 min. At PDGFRa, the inhibition at 0.5 µM amounted to 100%.

For `Cc1ccc(NC(=O)c2ccc(CN3CCN(C)CC3)cc2)cc1Nc1nccc(-c2cncc(-c3ccnn3C)c2)n1` [Compound 831], on PDGFRa, the inhibition at 0.5 µM was determined as 100%.

For the compound `Cc1ccc(NC(=O)c2ccc(CN3CCN(C)CC3)cc2)cc1Nc1nccc(-c2cncc(-c3ccn(C)n3)c2)n1` [Compound 832], in data set [1], the AUC(0-t) came out at 3180 ± 930 ng·h/mL, the highest level (Cmax) was 416 ± 84.5 ng/mL, the time to peak (Tmax) turned out to be 4 h and the volume of distribution (Vd) turned out to be 3.6 ± 1.8 L/kg. In data set [1], this compound gave a bioavailability of 33%, a clearance of 21.7 mL/min/kg and a half-life of 156 min. The half-life in data set [2] came to 24.5 min. In addition, in the data set with mice treated with MPTP, the “dopamine levels (protection of dopamine-secreting neurons)” value is on record as “protected dopamine-secreting neurons from degeneration” and the pole test latency entry is “recovered to a near-normal latency time”. The inhibition at 0.5 µM on PDGFRa amounted to 100%.

As for `Cc1ccc(NC(=O)c2ccc(CN3CCNCC3)cc2)cc1Nc1nccc(-c2cncc(-c3ccncc3)c2)n1` [Compound 870], the inhibition at 0.5 µM on PDGFRa was found to be 100%.

`Cc1ccc(NC(=O)c2ccc(CN3CCNCC3)cc2)cc1Nc1nccc(-c2cncc(-c3ccccn3)c2)n1` [Compound 880]: the inhibition at 0.5 µM at PDGFRa is 100%.

`Cc1ccc(NC(=O)c2ccc(CN3CCN(C)CC3)cc2)cc1Nc1nccc(-c2cncc(-c3ccns3)c2)n1` [Compound 8170]: the inhibition at 0.5 µM on PDGFRa came out at 100%.

For `Cc1cc(-c2cncc(-c3ccnc(Nc4cc(NC(=O)c5ccc(CN6CCN(C)CC6)cc5)ccc4C)n3)c2)sn1` [Compound 8190], the inhibition at 0.5 µM on PDGFRa came out at 100%.

As to `Cc1ccc(NC(=O)c2ccc(CN3CCN(C)CC3)cc2)cc1Nc1nccc(-c2cncc(-c3nncs3)c2)n1` [Compound 8250], on PDGFRa, the inhibition at 0.5 µM amounted to 100%.

Take `Cc1nnc(-c2cncc(-c3ccnc(Nc4cc(NC(=O)c5ccc(CN6CCN(C)CC6)cc5)ccc4C)n3)c2)s1` [Compound 8260]: the inhibition at 0.5 µM at PDGFRa was found to be 100%.

Regarding `Cc1ccc(NC(=O)c2ccc(CN3CCN(C)CC3)cc2)cc1Nc1nccc(-c2cncc(-c3nccs3)c2)n1` [Compound 8270], in data set [1], the AUC(0-t) amounted to 1760 ± 268 ng·h/mL, the highest level (Cmax) was 210 ± 31 ng/mL, the Tmax was 5.3 h and the volume of distribution (Vd) was 7.8 ± 0.7 L/kg. In data set [1], this compound gave a bioavailability of 46%, a clearance of 43.3 mL/min/kg and a half-life of 198 min. Moreover, the half-life in data set [2] came to 20.9 min. In addition, in the data set with mice treated with MPTP, the “dopamine levels (protection of dopamine-secreting neurons)” value is “protected dopamine-secreting neurons from degeneration” and the pole test latency entry is listed as “not statistically significant”.

Regarding `Cc1cnc(-c2cncc(-c3ccnc(Nc4cc(NC(=O)c5ccc(CN6CCN(C)CC6)cc5)ccc4C)n3)c2)s1` [Compound 8280], the inhibition at 0.5 µM on PDGFRa is 100%.

Regarding `Cc1csc(-c2cncc(-c3ccnc(Nc4cc(NC(=O)c5ccc(CN6CCN(C)CC6)cc5)ccc4C)n3)c2)n1` [Compound 8290], the inhibition at 0.5 µM on PDGFRa came out at 100%.

On to `Cc1ccc(NC(=O)c2ccc(CN3CCN(C)CC3)cc2)cc1Nc1nccc(-c2cccnc2)n1` [imatinib, reference compound], for which, in data set [1], the AUC(0-t) came to 2730 ng·h/mL, the maximum concentration (Cmax) is 241 ng/mL, the Tmax stood at 4 h and the bioavailability was about 53%. In data set [3], the “effectiveness in animal models of Parkinson's Disease” value is reported as “appear effective”.
